The term IC50 denotes the concentration at which inhibition is half-maximal.

Our source for the IC50 values is US20060142247A1, “Tricyclic heterocycles” (priority 2004, published 2006).

The structures appear in SMILES notation.

In the experiment the target is T1, Aurora A (Homo sapiens, UniProt O14965).
T1 construct: C-terminally Histidine4 (His4)-tagged Aurora A full-length protein; His4 (C)
T1 sequence (O14965 1-403): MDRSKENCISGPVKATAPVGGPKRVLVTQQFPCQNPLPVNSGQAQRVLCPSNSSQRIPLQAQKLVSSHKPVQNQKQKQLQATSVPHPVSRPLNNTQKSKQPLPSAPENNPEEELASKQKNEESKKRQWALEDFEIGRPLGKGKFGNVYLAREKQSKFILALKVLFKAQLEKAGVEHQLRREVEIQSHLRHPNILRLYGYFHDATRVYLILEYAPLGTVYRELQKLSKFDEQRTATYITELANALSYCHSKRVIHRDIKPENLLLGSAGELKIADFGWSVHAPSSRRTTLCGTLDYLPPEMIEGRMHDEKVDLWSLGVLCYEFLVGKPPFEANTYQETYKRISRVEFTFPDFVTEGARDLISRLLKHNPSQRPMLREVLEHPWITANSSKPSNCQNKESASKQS
The experiment in a line: IC50 determination for inhibitors of Aurora A (96 MTP-ELISA). The format is biochemical. The settings on record: His4-tagged full-length Aurora A 250 ng/ml, PKB-GSK2 200 nM, ATP 4 μM, 90 min room temperature, read-out: IC50 Aurora A kinase inhibition. On the procedure:
Aurora A is a serine threonine kinase involved in spindle assembly and chromosome segregation. The assay is a typically ELISA-type assay where biotinylated substrate (PKB-GSK2) is phosphorylated. Phosphorylation is detected by peroxidase (POD) labelled polyclonal antibody (PAK<M-Ig>S-IgG-POD) and phosphopeptide monoclonal antibody (Mab) (MAK<P-GSK>M-27E5-IgG). The assay is validated for IC50-determination.
Assay plates: 96-well polystyrene plates, streptavidin-coated,
Samples: 10 mM in dimethylsulfoxide (DMSO)
Aurora A-His-4: C-terminally Histidine4 (His4)-tagged Aurora A full-length protein, stock solution 0.7 mg/ml, final conc.: 250 ng/ml
PKB-GSK2: biotinylated peptide derived from human GSK3-alpha sequence (Biotin-SGRARTSSFAEPGG-CONH2), stock solution 600 μM, final conc.: 200 nM
PAK<M-Ig>S-IgG-POD: Anti-mouse IgG, horse radish peroxidase(HRP)-linked Antibody, diluted in 3% BSA/PBS-T (1:10000), (Cell Signaling, Cat. No.: 7076)
MAK<P-GSK>M-27E5-IgG: Phospho-GSK-3-alpha (Ser 21) (27E5) Monoclonal Antibody, stock solution 1.85 mg/ml, diluted in 3% BSA/PBS-T (1:6000), final conc.: 0.31 μg/ml, (Cell Signaling, Cat. No.: 9337B)
ATP: Adenosine-5′-triphosphate 1 mM, diluted in kinase buffer, (Roche Diagnostics GmbH, Cat. No.: 127531-001,), final conc.: 4 μM
TRIS: 2-Amino-2-hydroxymethyl-1,3-propoanediol (“tris-(hydroxymethyl)-aminomethane”) (MERCK, Cat. No.: 108382.2500)
BSA: Bovine Serum Albumin Fraction V, fatty acid free (Roche Diagnostics GmbH, Cat. No. 9100221)
EDTA Titriplex III (di-Sodium-EDTA di-Hydrate), 120 mM, (MERCK, Cat. No.: 1.08418.1000)
ABTS buffer: ABTS (2,2′-azino-bis(3-ethylbenzthiazoline-6-sulfonic acid)) 16.7 mg/ml (Roche Diagnostics GmbH, Cat. No.: 1204530) • ABTS tablets: dissolve one ABTS tablet in 50 ml of working solution (ABTS buffer) (Roche Diagnostics GmbH, Cat. No.: 1112422 ) • Tween 20: Polysorbat 20 (Roche Diagnostics GmbH, Cat. No.: 10006394-001) • DTT: 1,4-Dithiothreitol (Roche Diagnostics GmbH, Cat. No.: 197777) • MgCl2×6H2O MERCK, Cat. No.: 105833.1000 • Kinase buffer: 50 mM TRIS, 10 mM MgCl2, 1 mM DTT, 0.1% Tween 20, pH 7.8 PBS-T (=Wash buffer) (PBS-T)10 g/l PBS(Phosphate buffered saline) with 0.033% Tween 20 • 3% BSA/PBS-T: 3% BSA dissolved in PBS-T Method
This assay is performed in 96-well format for IC50 determination with 5 samples (each with 8 concentrations by twofold testing), 100 μl incubation volume and the following plate layout:
S samples, with ATP, 1% DMSO, final conc.: a=100 μM, b=20 μM, c=4 μM, d=0.8 μM, e=0.16 μM, f=0.032 μM, g=0.0064 μM, h=0.00128 μM Step/Action • (1) Sample preparation: add 24 μl per well samples (descending sequence) diluted in kinase buffer to assay plate (final conc. for DMSO 1%). • 2. Add directly 16 μl Aurora-A-his-4 diluted in kinase buffer to assay plate. • 3. Add directly 40 μl per well PKB-GSK2/ATP mixture to assay plate, (final conc.: Aurora A=250 ng/ml, GSK2=200 nM, ATP=4 μM). Negative control: without ATP. • 4. Incubate assay plate for exactly 90 min at room temperature. • 5. Stop reaction by adding 20 μl EDTA in all wells. • 6. Wash assay plate 3× with 200 μl washing buffer per well. • 7. Add 100 μl MAK<P-GSK>M27E5-IgG (1:10000) and PAK<M-Ig>S-IgG-POD (1:6000) dissolved in 3% BSA/PBS-T to assay plate per well. • 8. Incubate assay plate for 60 min at room temperature. • 9. Wash assay plate 3× with 200 μl washing buffer per well • 10. Add 100 μl ABTS solution to assay plate per well, incubate for approx. 4 min at RT on MTP shaker. • 11. Measure absorption at 405/492 nm. • 12. Calculate % inhibition as: (1−(Esample−ENC)/(EPC−ENC))×100 1)
13. Calculate IC50 using a non-linear curve fit (XLfit software (ID Business Solution Ltd., Guilford, Surrey, UK))
On to `CCN1C(=O)C(C)(C)c2cc3nc(-c4n[nH]c5ccccc45)[nH]c3cc21` [Example 3, 5-Ethyl-2-(1H-indazol-3-yl)-7,7-dimethyl-5,7-dihydro-3H-imidazo[4,5-f]indol-6-one], for which the IC50 lay within 1 to 100 nM. `CC1(C)C(=O)N(CC(N)=O)c2cc3[nH]c(-c4n[nH]c5ccccc45)nc3cc21` [Example 37, 2-[2-(1H-Indazol-3-yl)-7,7-dimethyl-6-oxo-6,7-dihydro-3H-imidazo[4,5-f]indol-5-yl]-acetamide]: the IC50 lay in the range of 1 to 100 nM. To `CCOC(=O)CN1C(=O)C(C)(C)c2cc3nc(-c4n[nH]c5ccccc45)[nH]c3cc21` [Example 23, [2-(1H-Indazol-3-yl)-7,7-dimethyl-6-oxo-6,7-dihydro-3H-imidazo[4,5-f]indol-5-yl]-acetic acid ethyl ester] belongs 1 to 100 nM. To `CC1(C)C(=O)N(CC(=O)NO)c2cc3[nH]c(-c4n[nH]c5ccccc45)nc3cc21` [Example 49, N-Hydroxy-2-[2-(1H-indazol-3-yl)-7,7-dimethyl-6-oxo-6,7-dihydro-3H-imidazo[4,5-f]indol-5-yl]-acetamide] belongs 1 to 100 nM; to `CC1(C)C(=O)N(Cc2ccc(S(C)(=O)=O)cc2)c2cc3[nH]c(-c4n[nH]c5ccccc45)nc3cc21` [Example 27, 2-(1H-Indazol-3-yl)-5-(4-methanesulfonyl-benzyl)-7,7-dimethyl-5,7-dihydro-3H-imidazol[4,5-f]indol-6-one], 1 to 100 nM; to `CC1C(=O)Nc2cc3[nH]c(-c4n[nH]c5ccccc45)nc3cc21` (stereo not shown) [Example 11, 2-(1H-Indazol-3-yl)-7-methyl-5,7-dihydro-3H-imidazo[4,5-f]indol-6-one], 100 to 250 nM. Then `COCCOCCN1C(=O)C(C)(C)c2cc3nc(-c4n[nH]c5ccccc45)[nH]c3cc21` [Example 17, 2-(1H-Indazol-3-yl)-5-[2-(2-methoxy-ethoxy)-ethyl]-7,7-dimethyl-5,7-dihydro-3H-imidazo[4,5-f]indol-6-one], with 1 to 100 nM.

For `CC1(C)C(=O)N(CCO[Si](C)(C)C(C)(C)C)c2cc3[nH]c(-c4n[nH]c5ccccc45)nc3cc21` [Example 28, 5-[2-(tert-Butyl-dimethyl-silanyloxy)-ethyl]-2-(1H-indazol-3-yl)-7,7-dimethyl-5,7-dihydro-3H-imidazo[4,5-f]indol-6-one], the IC50 lay in the range of 1 to 100 nM. Turning to `O=C1Nc2cc3nc(-c4n[nH]c5ccccc45)[nH]c3cc2C12CCCC2` [Example 9, 2-(1H-indazol-3-yl)-spiro[7,7-cyclopentan-5,7-dihydro-3H-imidazo[4,5-f]indol]-6-one], the IC50 fell in the range of 100 to 250 nM. Then `CC1(C)C(=O)N(CCCN2CCOCC2)c2cc3[nH]c(-c4n[nH]c5ccccc45)nc3cc21` [Example 7, 2-(1H-indazol-3-yl)-7,7-dimethyl-5-(3-morpholin-4-yl-propyl)-5,7-dihydro-3H-imidazo[4,5-f]indol-6-one], with 14 nM.

As to `CCC1C(=O)Nc2cc3nc(-c4[nH]nc5ccccc45)[nH]c3cc21` (stereo not shown) [Example 13, 7-Ethyl-2-(1H-indazol-3-yl)-5,7-dihydro-3H-imidazo[4,5-f]indol-6-one], the IC50 is 100 to 250 nM. Then `CC1(C)C(=O)Nc2cc3[nH]c(-c4n[nH]c5ccccc45)nc3cc21` [Example 8, 2-(1H-indazol-3-yl)-7,7-dimethyl-5,7-dihydro-3H-imidazo[4,5-f]indol-6-one], with 1 to 100 nM; and `CC1(C)C(=O)N(CCCN2CCCCC2)c2cc3[nH]c(-c4n[nH]c5ccccc45)nc3cc21` [Example 19, 2-(1H-Indazol-3-yl)-7,7-dimethyl-5-(3-piperidin-1-yl-propyl)-5,7-dihydro-3H-imidazo[4,5-f]indol-6-one], with 1 to 100 nM. To `CC1(C)C(=O)N(CC(=O)Nc2ccccc2)c2cc3[nH]c(-c4n[nH]c5ccccc45)nc3cc21` [Example 43, 2-[2-(1H-Indazol-3-yl)-7,7-dimethyl-6-oxo-6,7-dihydro-3H-imidazo[4,5-f]indol-5-yl]-N-phenyl-acetamide] belongs 1 to 100 nM; to `CC(C)N1C(=O)C(C)(C)c2cc3nc(-c4n[nH]c5ccccc45)[nH]c3cc21` [Example 6, 2-(1H-indazol-3-yl)-5-isopropyl-7,7-dimethyl-5,7-dihydro-3H-imidazo[4,5-f]indol-6-one], 28 nM; to `CCCN1C(=O)C(C)(C)c2cc3nc(-c4n[nH]c5ccccc45)[nH]c3cc21` [Example 5, 2-(1H-indazol-3-yl)-7,7-dimethyl-5-propyl-5,7-dihydro-3H-imidazo[4,5-f]indol-6-one], 1 to 100 nM. As to `CC1(C)C(=O)N(CC#N)c2cc3[nH]c(-c4n[nH]c5ccccc45)nc3cc21` [Example 24, [2-(1H-Indazol-3-yl)-7,7-dimethyl-6-oxo-6,7-dihydro-3H-imidazo[4,5-f]indol-5-yl]-acetonitrile], the IC50 lay in the range of 1 to 100 nM. To `C=CCCN1C(=O)C(C)(C)c2cc3nc(-c4n[nH]c5ccccc45)[nH]c3cc21` [Example 15, 5-But-3-enyl-2-(1H-indazol-3-yl)-7,7-dimethyl-5,7-dihydro-3H-imidazo[4,5-f]indol-6-one] belongs 1 to 100 nM; to `CC1(C)C(=O)N(CC(=O)O)c2cc3[nH]c(-c4n[nH]c5ccccc45)nc3cc21` [Example 36, [2-(1H-Indazol-3-yl)-7,7-dimethyl-6-oxo-6,7-dihydro-3H-imidazo[4,5-f]indol-5-yl]-acetic acid], 1 to 100 nM; to `CC1(C)C(=O)N(CC(O)CO)c2cc3[nH]c(-c4n[nH]c5ccccc45)nc3cc21` (stereo not shown) [Example 35, 5-(2,3-Dihydroxy-propyl)-2-(1H-indazol-3-yl)-7,7-dimethyl-5,7-dihydro-3H-imidazo [4,5-f]indol-6-one], 1 to 100 nM. `CC1(C)C(=O)N(Cc2ccccc2)c2cc3[nH]c(-c4n[nH]c5ccccc45)nc3cc21` [Example 26, 5-Benzyl-2-(1H-indazol-3-yl)-7,7-dimethyl-5,7-dihydro-3H-imidazo[4,5-f]indol-6-one]: the IC50 is 100 to 250 nM. To `CC1(C)C(=O)N(CCN)c2cc3[nH]c(-c4n[nH]c5ccccc45)nc3cc21` [Example 52, 5-(2-Amino-ethyl)-2-(1H-indazol-3-yl)-7,7-dimethyl-5,7-dihydro-3H-imidazo[4,5-f]indol-6-one] belongs 1 to 100 nM.
